Target: BRG1 (Homo sapiens, UniProt P51532)
Assay: biochemical
Assay type: binding
Conditions: BRG1 HTRF IC50 (µM)
Excerpt: IC50 measurements for inhibitors using BRG1 TR-FRET Binding Assay

BRG1, sequence (P51532 1448-1575): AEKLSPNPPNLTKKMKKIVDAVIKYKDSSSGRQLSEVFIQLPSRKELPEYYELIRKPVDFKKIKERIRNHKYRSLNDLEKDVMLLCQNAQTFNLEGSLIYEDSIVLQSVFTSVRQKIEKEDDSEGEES

Row | IC50 [µM] | SMILES
1 | 0.0113 | Nc1nnc(-c2ccccc2O)cc1N1CCC(O)(c2ccccc2)CC1 [Example 42, 1-(3-amino-6-(2-hydroxyphenyl)pyridazin-4-yl)-4-phenylpiperidin-4-ol]
2 | 0.0253 | CC1CN(c2cc(-c3ccccc3O)nnc2N)CCC1(O)c1ccccc1 (stereo not shown) [Example 44, 1-(3-amino-6-(2-hydroxyphenyl)pyridazin-4-yl)-3-methyl-4-phenylpiperidin-4-ol]
3 | 0.414 | Nc1nnc(-c2ccccc2O)cc1N1CCS(=O)(=O)CC1 [Example 46, 4-(3-amino-6-(2-hydroxyphenyl)pyridazin-4-yl)thiomorpholine 1,1-dioxide]
4 | 0.0848 | Nc1nnc(-c2ccccc2O)cc1N1CCNC(Cc2ccccc2)C1 (stereo not shown) [Example 49, 2-(6-amino-5-(3-benzylpiperazin-1-yl)pyridazin-3-yl)phenol]
5 | 0.128 | Nc1nnc(-c2ccccc2O)cc1N1CCc2[nH]ncc2C1 [Example 52, 2-(6-amino-5-(1,4,6,7-tetrahydro-5H-pyrazolo[4,3-c]pyridin-5-yl)pyridazin-3-yl)phenol]
6 | 0.316 | Nc1nnc(-c2ccccc2O)cc1N1CCNC(=O)C1 [Example 53, 4-(3-amino-6-(2-hydroxyphenyl)pyridazin-4-yl)piperazin-2-one]
7 | 0.123 | Nc1nnc(-c2ccccc2O)cc1N1CCC(c2ccccc2)C1 (stereo not shown) [Example 55, 2-(6-amino-5-(3-phenylpyrrolidin-1-yl)pyridazin-3-yl)phenol]
8 | 0.0252 | Nc1nnc(-c2ccccc2O)cc1N1CC(OCc2ccccc2)C1 [Example 58, 2-(6-amino-5-(3-(benzyloxy)azetidin-1-yl)pyridazin-3-yl)phenol]
9 | 0.0158 | Nc1nnc(-c2ccccc2O)cc1N1CCCC(O)(c2ccccc2)C1 (stereo not shown) [Example 59, 1-(3-amino-6-(2-hydroxyphenyl)pyridazin-4-yl)-3-phenylpiperidin-3-ol]
10 | 0.0247 | C[C@@H](C1CCN(c2cc(-c3ccccc3O)nnc2N)CC1)N(C)C [Example 60, (S)-2-(6-amino-5-(4-(1-(dimethylamino)ethyl)piperidin-1-yl)pyridazin-3-yl)phenol]
11 | 0.0348 | Nc1nnc(-c2ccccc2O)cc1N1CCN(C(=O)c2ccccc2)CC1 [Example 61, (4-(3-amino-6-(2-hydroxyphenyl)pyridazin-4-yl)piperazin-1-yl)(phenyl)methanone]
12 | 0.0117 | CC1CN(c2cc(-c3ccccc3O)nnc2N)CCN1C(=O)c1ccccc1 (stereo not shown) [Example 62, (4-(3-amino-6-(2-hydroxyphenyl)pyridazin-4-yl)-2-methylpiperazin-1-yl)(phenyl)methanone]
13 | 0.208 | Nc1nnc(-c2ccccc2O)cc1N1CCN(c2ccccc2)C(=O)C1 [Example 64, 4-(3-amino-6-(2-hydroxyphenyl)pyridazin-4-yl)-1-phenylpiperazin-2-one]
14 | 0.0276 | C[C@H](C1CCN(c2cc(-c3ccccc3O)nnc2N)CC1)N(C)C [Example 65, (R)-2-(6-amino-5-(4-(1-(dimethylamino)ethyl)piperidin-1-yl)pyridazin-3-yl)phenol]
15 | 0.0367 | Cn1cc(N2CCN(c3cc(-c4ccccc4O)nnc3N)CC2)cn1 [Example 68, 2-(6-amino-5-(4-(1-methyl-1H-pyrazol-4-yl)piperazin-1-yl)pyridazin-3-yl)phenol]
16 | 0.0824 | NC(=O)C1CCN(c2cc(-c3ccccc3O)nnc2N)CC1 [Example 73, 1-(3-amino-6-(2-hydroxyphenyl)pyridazin-4-yl)piperidine-4-carboxamide]
17 | 0.0106 | Nc1nnc(-c2ccccc2O)cc1N1C[C@H]2C[C@@H]1CN2c1ccccn1 [Example 74, 2-(6-amino-5-((1R,4R)-5-(pyridin-2-yl)-2,5-diazabicyclo[2.2.1]heptan-2-yl)pyridazin-3-yl)phenol]

Continued, molecule first:

Row | SMILES | IC50 [µM]
18 | CN1CCCN(c2cc(-c3ccccc3O)nnc2N)CC1 [Example 2, 2-(6-amino-5-(4-methyl-1,4-diazepan-1-yl)pyridazin-3-yl)phenol] | 0.296
19 | Nc1nnc(-c2ccccc2O)cc1N1CCN(S(=O)(=O)c2ccccc2)CC1 [Example 11, 2-(6-amino-5-(4-(phenylsulfonyl)piperazin-1-yl)pyridazin-3-yl)phenol] | 0.0612
20 | Nc1nnc(-c2ccccc2O)cc1N1CCN(Cc2ccccc2)CC1 [Example 12, 2-(6-amino-5-(4-benzylpiperazin-1-yl)pyridazin-3-yl)phenol] | 0.0612
21 | Nc1nnc(-c2ccccc2O)cc1N1CCN(c2ccccc2)CC1 [Example 13, 2-(6-amino-5-(4-phenylpiperazin-1-yl)pyridazin-3-yl)phenol] | 0.0321
22 | Nc1nnc(-c2ccccc2O)cc1N1CCN(Cc2ccccc2)C(=O)C1 [Example 14, 4-(3-amino-6-(2-hydroxyphenyl)pyridazin-4-yl)-1-benzylpiperazin-2-one] | 0.0735
23 | Nc1nnc(-c2ccccc2O)cc1N1C[C@@H]2C[C@H]1CN2Cc1ccccc1 [Example 17, 2-(6-amino-5-((1S,4S)-5-benzyl-2,5-diazabicyclo[2.2.1]heptan-2-yl)pyridazin-3-yl)phenol] | 0.147
24 | Nc1nnc(-c2ccccc2O)cc1N1CCC(c2ccccc2)CC1 [Example 18, 2-(6-amino-5-(4-phenylpiperidin-1-yl)pyridazin-3-yl)phenol] | 0.0967
25 | CN(C)C(=O)C1CCN(c2cc(-c3ccccc3O)nnc2N)CC1 [Example 19, 1-(3-amino-6-(2-hydroxyphenyl)pyridazin-4-yl)-N,N-dimethylpiperidine-4-carboxamide] | 0.0564
26 | CC(C)(O)C1CCN(c2cc(-c3ccccc3O)nnc2N)CC1 [Example 20, 2-(6-amino-5-(4-(2-hydroxypropan-2-yl)piperidin-1-yl)pyridazin-3-yl)phenol] | 0.0358
27 | CN(C)CC1CCCN(c2cc(-c3ccccc3O)nnc2N)C1 (stereo not shown) [Example 21, 2-(6-amino-5-(3-((dimethylamino)methyl)piperidin-1-yl)pyridazin-3-yl)phenol] | 0.116
28 | CC1CN(c2cc(-c3ccccc3O)nnc2N)CCN1Cc1ccccc1 (stereo not shown) [Example 22, 2-(6-amino-5-(4-benzyl-3-methylpiperazin-1-yl)pyridazin-3-yl)phenol] | 0.0421
29 | Nc1nnc(-c2ccccc2O)cc1N1CCNC(C(F)(F)F)C1 (stereo not shown) [Example 23, 2-(6-amino-5-(3-(trifluoromethyl)piperazin-1-yl)pyridazin-3-yl)phenol] | 0.172
30 | CNC(=O)CN1CCN(c2cc(-c3ccccc3O)nnc2N)CC1 [Example 24, 2-(4-(3-amino-6-(2-hydroxyphenyl)pyridazin-4-yl)piperazin-1-yl)-N-methylacetamide] | 0.0746
31 | CN1CCOC2(CCN(c3cc(-c4ccccc4O)nnc3N)CC2)C1 [Example 25, 2-(6-amino-5-(4-methyl-1-oxa-4,9-diazaspiro[5.5]undecan-9-yl)pyridazin-3-yl)phenol] | 0.0176
32 | CS(=O)(=O)CCN1CCN(c2cc(-c3ccccc3O)nnc2N)CC1 [Example 26, 2-(6-amino-5-(4-(2-(methylsulfonyl)ethyl)piperazin-1-yl)pyridazin-3-yl)phenol] | 0.0978
33 | Nc1nnc(-c2ccccc2O)cc1N1CCN(CC(F)(F)F)CC1 [Example 27, 2-(6-amino-5-(4-(2,2,2-trifluoroethyl)piperazin-1-yl)pyridazin-3-yl)phenol] | 0.0755
34 | Nc1nnc(-c2ccccc2O)cc1N1CCC2(CC1)CNC(=O)C2 [Example 29, 8-(3-amino-6-(2-hydroxyphenyl)pyridazin-4-yl)-2,8-diazaspiro[4.5]decan-3-one] | 0.0566
35 | CN(C)CC1(O)CCN(c2cc(-c3ccccc3O)nnc2N)CC1 [Example 31, 1-(3-amino-6-(2-hydroxyphenyl)pyridazin-4-yl)-4-((dimethylamino)methyl) piperidin-4-ol] | 0.0208
36 | CN(CCc1ccccc1)c1cc(-c2ccccc2O)nnc1N [Example 36, 2-(6-amino-5-(methyl(phenethyl)amino)pyridazin-3-yl)phenol] | 0.0962
37 | CC1CN(c2cc(-c3ccccc3O)nnc2N)CC(C)N1Cc1ccccc1 (stereo not shown) [Example 37, 2-(6-amino-5-(4-benzyl-3,5-dimethylpiperazin-1 - yl)pyridazin-3-yl)phenol] | 0.102
38 | Nc1nnc(-c2ccccc2O)cc1N1CCC(O)C1 (stereo not shown) [Example 38, 1-(3-amino-6-(2-hydroxyphenyl)pyridazin-4-yl)pyrrolidin-3-ol] | 0.0921
39 | Nc1nnc(-c2ccccc2O)cc1N1CCC(O)(Cc2ccccc2)C1 (stereo not shown) [Example 39, 1-(3-amino-6-(2-hydroxyphenyl)pyridazin-4-yl)-3-benzylpyrrolidin-3-ol] | 0.113
40 | COC1(Cc2ccccc2)CCN(c2cc(-c3ccccc3O)nnc2N)C1 (stereo not shown) [Example 40, 2-(6-amino-5-(3-benzyl-3-methoxypyrrolidin-1-yl)pyridazin-3-yl)phenol] | 0.0794
41 | Nc1nnc(-c2ccccc2O)cc1N1CC2CC1CN2c1ccccn1 (stereo not shown) [Example 41, 2-(6-amino-5-(5-(pyridin-2-yl)-2,5-diazabicyclo[2.2.1]heptan-2-yl)pyridazin-3-yl)phenol] | 0.0282
42 | Nc1nnc(-c2ccccc2O)cc1N1CC2CCC(C1)N2c1cncnc1 [Example 43, 2-(6-amino-5-(8-(pyrimidin-5-yl)-3,8-diazabicyclo[3.2.1]octan-3-yl)pyridazin-3-yl)phenol] | 0.0193
43 | Cn1cc(N2C3CCC2CN(c2cc(-c4ccccc4O)nnc2N)C3)cn1 [Example 48, 2-(6-amino-5-(8-(1-methyl-1H-pyrazol-4-yl)-3,8-diazabicyclo[3.2.1]octan-3-yl)pyridazin-3-yl)phenol] | 0.0309
44 | Nc1nnc(-c2ccccc2O)cc1N1CC2CCC(C1)N2c1cnccn1 [Example 50, 2-(6-amino-5-(8-(pyrazin-2-yl)-3,8-diazabicyclo[3.2.1]octan-3-yl)pyridazin-3-yl)phenol] | 0.0106
45 | CC(=O)N1C2CCC1CN(c1cc(-c3ccccc3O)nnc1N)C2 [Example 66, 1-(3-(3-amino-6-(2-hydroxyphenyl)pyridazin-4-yl)-3,8-diazabicyclo[3.2.1]octan-8-yl)ethan-1-one] | 0.0713
46 | CS(=O)(=O)N1C2CCC1CN(c1cc(-c3ccccc3O)nnc1N)C2 [Example 67, 2-(6-amino-5-(8-(methylsulfonyl)-3,8-diazabicyclo[3.2.1]octan-3-yl)pyridazin-3-yl)phenol] | 0.0294
